From PubChem BioAssay (NCI)
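Method: 48-hour compound exposure of cells in 96-well plates, five concentrations, linear interpolation of endpoints. GI50 = concentration required for 50% inhibition of growth. The concentration for full growth arrest is given as TGI.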

Key:
Assay in all cases: NCI tumour cell line growth inhibition, 48 h
[1] = tested on: SF-268 CNS
[2] = tested on: CAKI-1 renal
[3] = tested on: DU-145 prostate
[4] = tested on: PC-3 prostate
[5] = tested on: UACC-257 melanoma
[6] = tested on: HS 578T breast
[7] = tested on: SF-295 CNS
[8] = tested on: OVCAR-3 ovarian
[9] = tested on: OVCAR-8 ovarian
[10] = tested on: HOP-92 NSCLC

Structure (SMILES) | GI50 [1] [µM] | TGI [1] [µM] | GI50 [2] [µM] | TGI [2] [µM] | GI50 [3] [µM] | TGI [3] [µM] | GI50 [4] [µM] | TGI [4] [µM] | GI50 [5] [µM] | TGI [5] [µM] | GI50 [6] [µM] | TGI [6] [µM] | TGI [7] [µM] | GI50 [8] [µM] | TGI [8] [µM] | GI50 [9] [µM] | GI50 [10] [µM] | TGI [10] [µM] | TGI [9] [µM] | GI50 [7] [µM]
COc1cc(/C=C/C(=O)N2CCN(C(=O)c3cc(OC)c(OC)c(OC)c3)CC2)ccc1OCCCOc1cc2c(cc1OC)C(=O)N1CCC[C@H]1C=N2 | 0.284 | 4.03 | 1.54 | 6.08 | 0.351 | 11.5 | 0.506 | > 34.3 | 0.313 | 2.04 | 0.31 | 0.841 | 0.875 | 0.219 | 0.504 | 0.345 | 0.297 | 7.46 | – | –
COc1cc2c(cc1OC)C1Cc3cc(OC)c(OC)cc3C(C2)N1C | – | > 100 | – | > 100 | – | > 75 | – | > 75 | – | > 100 | – | > 75 | > 100 | – | > 100 | – | – | > 75 | > 100 | –
Cn1c(=O)c(Oc2ccc(F)cc2F)cc2cnc(NC3CCS(=O)(=O)CC3)nc21 | > 18.9 | > 25 | > 25 | > 25 | > 25 | > 25 | > 25 | > 25 | > 25 | > 25 | > 25 | > 25 | > 25 | > 25 | > 25 | > 25 | 5.23 | > 25 | > 25 | > 12.4
CCCCCCCCCCCCCCCCC(=O)O.CCCCCCCCCCCCCCCCCC(=O)O.CCCCCCCCCCCCCCCCCC(=O)O.CCCCCCCCCCCCCCCCCC(=O)O.CCCCCCCCCCCCCCCCCC(=O)O.CO[CH-]OC12COC1CC(O)C1(C)C(O)C(OC(C)O)C3=C(C)C(OC(=O)C(O)C([NH-])c4ccccc4)CC(O)(C(OC(=O)c4ccccc4)C21)C3(C)C.[Cu+].[Zn].[Zn].[Zn].[Zn].[Zn] (configuration not stated) | – | 6.25 | 0.0513 | > 25 | 0.00871 | 1.63 | 0.00998 | 5.63 | 3.91 | > 25 | 0.00335 | 0.0297 | 2.9 | 0.00747 | 0.388 | 0.0102 | 0.858 | 12.8 | > 25 | 0.0102
CN1C/C=C/CCOc2cccc(c2)-c2ccnc(n2)Nc2cccc(c2)C1 | 0.0425 | 0.264 | 0.039 | 0.46 | 0.0402 | 1.4 | 0.0519 | 1.39 | 0.0505 | 0.225 | 0.0367 | 0.438 | 0.434 | 0.0336 | 1.23 | 0.0412 | 0.0428 | 0.242 | 1.26 | 0.0321
CC(=O)OC12COC1CC(O)C1(C)C(=O)C(O)C3=C(C)C(O)CC(O)(C(OC(=O)c4ccccc4)C21)C3(C)C (configuration not stated) | – | > 100 | – | > 100 | – | > 100 | – | > 28.5 | – | > 100 | 1.36 | 6.15 | > 100 | – | > 39.2 | – | – | > 100 | > 100 | –
COc1cc(-c2c(C#N)c(N)nc(N3CCOCC3)c2C#N)cc(OC)c1OC | > 100 | > 100 | > 100 | > 100 | > 100 | > 100 | > 100 | > 100 | > 100 | > 100 | 94 | > 100 | > 100 | 68.8 | > 100 | > 100 | 35.9 | > 100 | > 100 | > 100
COc1ccc(-n2ccnc2-c2cc(OC)c(OC)c(OC)c2)cc1 | 8.69 | > 100 | 1.28 | 7.69 | 6.66 | > 100 | 3.3 | > 100 | 6.64 | > 100 | 2.08 | 8.29 | 8.35 | 1.58 | 5.03 | 4.71 | 20 | > 100 | > 100 | 1.99
CC(C)(C)CC(N)=O | – | > 100 | – | > 100 | – | > 100 | – | > 100 | – | > 100 | – | > 100 | > 100 | – | > 100 | – | – | > 100 | > 100 | –
CC(=O)N1N=C2/C(=C/c3ccc(Cl)cc3)CC(C)CC2C1c1ccc(Cl)cc1 (configuration not stated) | 21.5 | 73.4 | 44.3 | > 100 | 30.5 | > 100 | 12.8 | > 100 | 19.9 | 56.1 | 20.6 | 72.1 | > 100 | 20 | 53.9 | 24.9 | 19.5 | 54 | > 100 | 28.8
CCCCCCCCC(=O)OCC(CS[As](C)C)OC(=O)CCCCCCCC (configuration not stated) | 3.53 | 25.9 | 0.22 | 1.12 | 0.747 | 2.64 | 2.6 | 21.8 | 1.4 | 15.3 | 1.39 | – | 19.4 | 0.191 | 0.583 | 1.75 | 1.93 | 18.3 | 5.3 | 3.66
Cc1cc(C(C)(C)C)cc(CNC2CCCCC2)c1O | – | 30.3 | – | 35.7 | – | 37.6 | – | 31 | – | 28.4 | – | 48.7 | 31.7 | – | 34.2 | – | – | 29.3 | 31 | –
CCN1Cc2nc3sc(C)c(C)c3c(=O)n2C=C1C | 5.41 | 36.2 | 11.2 | 53.5 | 7.7 | 23 | 4.07 | > 100 | 4.56 | 17.6 | 1.66 | 6.92 | > 100 | 2.75 | 9.74 | 4.83 | 6.2 | 46.4 | 25.3 | 20.2
